Experiment [1] concerns the target T1, Cytochrome P450 2C9 (Homo sapiens, UniProt P11712). Conditions: Potency.
Experiment [2] has as its target T1, Cytochrome P450 2C9.
Experiment [3] has as its target T2, Mannose-6-phosphate isomerase (Homo sapiens, UniProt P34949).
T2 sequence (P34949 whole entry): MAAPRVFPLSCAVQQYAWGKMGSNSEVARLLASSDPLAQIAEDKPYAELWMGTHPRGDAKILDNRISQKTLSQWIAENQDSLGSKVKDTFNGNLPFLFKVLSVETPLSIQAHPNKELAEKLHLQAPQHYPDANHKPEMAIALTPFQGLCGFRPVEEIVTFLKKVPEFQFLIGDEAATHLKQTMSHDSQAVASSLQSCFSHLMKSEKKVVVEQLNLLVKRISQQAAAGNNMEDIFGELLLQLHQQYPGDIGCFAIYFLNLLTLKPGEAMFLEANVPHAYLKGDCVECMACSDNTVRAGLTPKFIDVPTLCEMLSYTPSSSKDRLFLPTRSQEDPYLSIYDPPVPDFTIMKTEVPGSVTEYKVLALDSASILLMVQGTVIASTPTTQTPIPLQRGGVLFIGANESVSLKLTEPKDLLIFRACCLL
Kind of experiment: MPI inhibition at elevated mannose 6-phosphate – biochemical, fluorescence intensity, high mannose 6-phosphate, primary screen (AID 1220).

For experiment [4], the target named is T2, Mannose-6-phosphate isomerase. Kind of experiment: MPI enzyme activity inhibition – biochemical, fluorescence intensity, coupled assay, primary screen (AID 1209).
In experiment [5] the target is T3, Apoptotic protease-activating factor 1 (Homo sapiens, UniProt O14727).
T3 sequence (O14727 whole entry): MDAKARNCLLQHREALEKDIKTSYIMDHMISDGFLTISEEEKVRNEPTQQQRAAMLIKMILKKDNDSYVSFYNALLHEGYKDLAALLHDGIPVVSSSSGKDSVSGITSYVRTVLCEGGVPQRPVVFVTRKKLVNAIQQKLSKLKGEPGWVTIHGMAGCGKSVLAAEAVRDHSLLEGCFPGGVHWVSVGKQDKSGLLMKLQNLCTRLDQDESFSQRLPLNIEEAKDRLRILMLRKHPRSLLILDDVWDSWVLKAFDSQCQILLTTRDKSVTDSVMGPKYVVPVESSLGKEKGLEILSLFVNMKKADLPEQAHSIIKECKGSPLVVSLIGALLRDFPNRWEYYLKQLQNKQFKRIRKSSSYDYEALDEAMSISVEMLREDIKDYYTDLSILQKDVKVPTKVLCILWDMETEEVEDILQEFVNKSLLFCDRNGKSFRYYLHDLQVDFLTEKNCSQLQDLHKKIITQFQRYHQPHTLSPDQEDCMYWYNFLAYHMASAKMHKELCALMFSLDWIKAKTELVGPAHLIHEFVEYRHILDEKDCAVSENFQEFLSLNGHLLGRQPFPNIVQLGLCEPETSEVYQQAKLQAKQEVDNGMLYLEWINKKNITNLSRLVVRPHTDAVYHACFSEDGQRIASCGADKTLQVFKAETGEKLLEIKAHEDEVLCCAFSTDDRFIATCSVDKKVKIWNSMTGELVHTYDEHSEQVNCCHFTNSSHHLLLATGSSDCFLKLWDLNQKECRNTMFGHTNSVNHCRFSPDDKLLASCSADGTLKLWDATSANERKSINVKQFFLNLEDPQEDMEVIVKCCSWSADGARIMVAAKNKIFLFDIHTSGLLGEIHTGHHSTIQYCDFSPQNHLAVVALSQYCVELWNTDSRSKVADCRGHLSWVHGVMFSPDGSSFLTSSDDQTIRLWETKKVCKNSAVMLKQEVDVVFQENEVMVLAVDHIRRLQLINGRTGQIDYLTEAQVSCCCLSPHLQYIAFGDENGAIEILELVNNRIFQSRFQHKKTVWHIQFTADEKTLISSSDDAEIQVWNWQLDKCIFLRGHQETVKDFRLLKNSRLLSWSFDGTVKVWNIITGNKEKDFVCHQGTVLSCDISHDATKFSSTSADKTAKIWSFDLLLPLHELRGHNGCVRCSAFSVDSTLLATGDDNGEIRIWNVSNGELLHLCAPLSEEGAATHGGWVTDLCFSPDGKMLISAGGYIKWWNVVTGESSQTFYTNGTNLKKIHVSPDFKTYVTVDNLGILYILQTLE
The format is functional.

Experiment [6] addresses T4, Protein RecA (Mycobacterium tuberculosis, UniProt P9WHJ3).
T4 sequence (P9WHJ3 whole entry): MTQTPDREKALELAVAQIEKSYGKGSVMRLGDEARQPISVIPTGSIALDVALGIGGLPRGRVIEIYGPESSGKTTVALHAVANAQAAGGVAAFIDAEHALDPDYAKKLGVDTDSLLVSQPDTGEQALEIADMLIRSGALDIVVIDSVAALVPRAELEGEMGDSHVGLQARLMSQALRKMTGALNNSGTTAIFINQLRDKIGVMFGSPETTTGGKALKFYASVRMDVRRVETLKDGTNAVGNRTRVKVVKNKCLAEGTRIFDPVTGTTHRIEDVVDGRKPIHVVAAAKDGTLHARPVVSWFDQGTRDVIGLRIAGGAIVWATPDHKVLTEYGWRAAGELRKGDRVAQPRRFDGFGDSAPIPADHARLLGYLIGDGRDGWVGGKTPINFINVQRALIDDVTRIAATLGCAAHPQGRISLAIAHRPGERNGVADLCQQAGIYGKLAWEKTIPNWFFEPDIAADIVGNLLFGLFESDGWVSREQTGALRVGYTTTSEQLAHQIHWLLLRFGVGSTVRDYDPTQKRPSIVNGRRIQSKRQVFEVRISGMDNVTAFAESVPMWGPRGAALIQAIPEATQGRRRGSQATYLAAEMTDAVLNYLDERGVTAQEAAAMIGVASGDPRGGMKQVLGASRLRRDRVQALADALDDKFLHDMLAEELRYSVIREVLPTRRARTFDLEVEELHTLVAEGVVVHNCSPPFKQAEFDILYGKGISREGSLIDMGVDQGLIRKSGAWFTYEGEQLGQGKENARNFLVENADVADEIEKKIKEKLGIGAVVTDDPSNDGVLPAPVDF
Kind of experiment: Fluorescence Cell-Free Homogeneous Dose Retest to Identify Inhibitors of RecA-Intein Splicing Activity. [Related pubchem assays (depositor defined):AID2097, AID2223, AID489010, AID492950]. Format: functional.

In experiment [7] the target is Cytochrome P450 3A4 (Homo sapiens, UniProt P08684). Conditions: Potency.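 Note: confirmatory qHTS run detecting inhibitors and substrates of CYP3A4.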
Cytochrome P450 3A4, sequence (P08684 whole entry): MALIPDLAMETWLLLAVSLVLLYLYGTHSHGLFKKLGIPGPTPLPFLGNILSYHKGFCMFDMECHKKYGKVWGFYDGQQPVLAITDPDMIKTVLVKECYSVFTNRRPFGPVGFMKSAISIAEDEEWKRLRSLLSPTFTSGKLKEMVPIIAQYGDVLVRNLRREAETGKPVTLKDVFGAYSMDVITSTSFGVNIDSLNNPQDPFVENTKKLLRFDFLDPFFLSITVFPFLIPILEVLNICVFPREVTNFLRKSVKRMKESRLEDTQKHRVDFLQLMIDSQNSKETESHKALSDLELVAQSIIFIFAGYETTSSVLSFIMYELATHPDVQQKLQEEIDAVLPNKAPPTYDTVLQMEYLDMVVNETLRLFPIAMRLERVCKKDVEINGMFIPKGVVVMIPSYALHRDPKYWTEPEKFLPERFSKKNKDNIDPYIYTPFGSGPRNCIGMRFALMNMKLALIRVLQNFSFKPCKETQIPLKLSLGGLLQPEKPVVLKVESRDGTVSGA
The nature of experiment [8]: Luminescence Cell-Based Dose Confirmation HTS to Identify Inhibitors of Platelet Dense Granule Release. [Related pubchem assays: 1663 (Primary HTS), 1678 (Summary of Project)]. The format is functional.
Experiment [9] in a line: Luminescence-based counterscreen assay for KLF5 inhibitors: dose response cell-based high throughput screening assay to identify cytotoxic compounds using the IEC-6 intestinal epithelial cell line. [Related pubchem assays: 1700 (Primary screen.), 1834 (Confirmation screen.), 1858 (Summary AID.), 1905 (Counterscreen.)]. Format: functional. In general terms: A counterscreen serves to expose hits that act by an unwanted route or on another target.

A short description of experiment [10]: HEK-293T viability loss after treatment – luminescence, T-cell screen hits, cytotoxicity control for TCR NF-kB inhibitor project, dose response (AID 489026).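 Note: cells exposed to compound about 14 hours before the viability readout.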 Format: functional, cell-based.
The subject of experiment [11] is HEK293. Kind of experiment: cells. Conditions: Homo sapiens.
Experiment [12] addresses T5, Polyadenylate-binding protein 1 (Homo sapiens, UniProt P11940). Kind of experiment: MLLE domain peptide-binding blockers, IC50 – biochemical, fluorescence polarization, FITC-PAM2 peptide, dose response (AID 602259). Conditions: read-out: IC50_Mean. The format is functional. (In general: In fluorescence polarisation assays a small probe gives low polarisation when free and higher when bound to something large.)

Experiment [13] concerns the target Nonstructural protein 1 (Influenza A virus, UniProt Q194T2). Format: functional, Influenza A virus (A/California/07/2009(H1N1)).
For experiment [14], the system named is Vero. Kind of experiment: viability of Vero cells under compound – cytotoxicity control for flavivirus capping enzyme inhibitors (AID 588742). The format is functional. The conditions noted are these: Chlorocebus sabaeus.
Experiment [15] concerns Streptococcus. Kind of experiment: GAS UMAA2166 growth inhibition – luminescence, BacTiterGlo, counter-screen for streptokinase expression inhibitor project, dose response (AID 1915).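 Note: potency for reduction of bacterial viability or growth.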 Format: functional, organism-based.
Experiment [16] addresses Disintegrin and metalloproteinase domain-containing protein 17 (Homo sapiens, UniProt P78536). Kind of experiment: exosite inhibitors of ADAM17, dose response, biochemical (AID 743260).
Experiment [17] in a line: inhibition of ADAM10 peptide cleavage – biochemical, FRET peptide substrate, recombinant human ADAM10, selectivity assay for ADAM17 exosite inhibitor project, dose response (AID 743259).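 Note: ADAM10 enzyme cleaving a FRET peptide substrate.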
The target in experiment [18] is Heat shock protein HSP 90-alpha (Homo sapiens, UniProt P07900). Format: functional, organism-based.
Experiment [19] relates to INS1. Kind of experiment: INS-1E survival protection against cytokine death – cell-based, luminescence, retest, dose response (AID 449756).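 Note: cell death triggered by IL-1 beta plus TNF-alpha plus IFN-gamma mixture; protective hits raise ATP signal compared with cytokine alone wells.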 The format is functional. Conditions: Rattus norvegicus.
The test system of experiment [20] is Streptococcus sp. 'group A'. Kind of experiment: Streptococcus pyogenes SK(-)GAS viability under kanamycin – luminescence, BacTiterGlo, confirmation, counter-screen for streptokinase expression inhibitor project, dose response (AID 1900). Format: functional, organism-based.
Experiment [21] concerns the target T5, Polyadenylate-binding protein 1. Kind of experiment: MLLE binding blockers, Cy5 peptide tracer – biochemical, fluorescence polarization, Cy5-PAM2 peptide, secondary, miRNA deadenylation inhibitor project, dose response (AID 602260). Format: functional. The conditions noted are these: read-out: IC50_Mean.

Molecules are shown by their SMILES. Calls of active or inactive are those of the source.

T1 sequence (P11712 whole entry): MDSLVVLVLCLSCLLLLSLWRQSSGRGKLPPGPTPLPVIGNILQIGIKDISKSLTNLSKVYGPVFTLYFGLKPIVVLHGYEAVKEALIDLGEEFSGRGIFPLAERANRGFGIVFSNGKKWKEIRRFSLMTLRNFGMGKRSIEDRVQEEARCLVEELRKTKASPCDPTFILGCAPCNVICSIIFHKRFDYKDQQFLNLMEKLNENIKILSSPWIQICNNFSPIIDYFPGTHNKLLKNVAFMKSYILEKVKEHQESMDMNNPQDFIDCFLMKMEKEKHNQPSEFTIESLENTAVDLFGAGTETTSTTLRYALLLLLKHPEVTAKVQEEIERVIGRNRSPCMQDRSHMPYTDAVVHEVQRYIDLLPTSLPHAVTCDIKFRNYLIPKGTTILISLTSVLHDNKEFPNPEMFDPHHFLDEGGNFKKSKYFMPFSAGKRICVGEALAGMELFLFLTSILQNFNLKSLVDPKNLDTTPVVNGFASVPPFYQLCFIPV
T5 sequence (P11940 whole entry, the tested form may be a part): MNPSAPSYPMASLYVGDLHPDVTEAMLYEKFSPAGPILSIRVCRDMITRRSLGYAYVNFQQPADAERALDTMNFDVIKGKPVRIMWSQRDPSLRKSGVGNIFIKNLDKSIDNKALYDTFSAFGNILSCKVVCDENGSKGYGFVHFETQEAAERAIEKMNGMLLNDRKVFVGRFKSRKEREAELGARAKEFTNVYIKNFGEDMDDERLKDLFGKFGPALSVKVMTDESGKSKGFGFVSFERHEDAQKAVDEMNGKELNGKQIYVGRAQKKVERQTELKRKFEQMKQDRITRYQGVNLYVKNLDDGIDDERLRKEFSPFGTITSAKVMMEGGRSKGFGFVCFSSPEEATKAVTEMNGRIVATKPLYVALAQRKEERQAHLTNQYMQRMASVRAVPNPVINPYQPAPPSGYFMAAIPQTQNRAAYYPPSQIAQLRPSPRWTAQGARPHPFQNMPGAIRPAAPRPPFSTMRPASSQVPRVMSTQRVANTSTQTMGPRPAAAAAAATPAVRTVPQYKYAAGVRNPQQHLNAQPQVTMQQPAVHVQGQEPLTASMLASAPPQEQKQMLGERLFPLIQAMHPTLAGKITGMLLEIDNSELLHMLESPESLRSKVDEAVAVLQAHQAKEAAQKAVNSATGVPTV
Disintegrin and metalloproteinase domain-containing protein 17, sequence (P78536 whole entry, the tested form may be a part): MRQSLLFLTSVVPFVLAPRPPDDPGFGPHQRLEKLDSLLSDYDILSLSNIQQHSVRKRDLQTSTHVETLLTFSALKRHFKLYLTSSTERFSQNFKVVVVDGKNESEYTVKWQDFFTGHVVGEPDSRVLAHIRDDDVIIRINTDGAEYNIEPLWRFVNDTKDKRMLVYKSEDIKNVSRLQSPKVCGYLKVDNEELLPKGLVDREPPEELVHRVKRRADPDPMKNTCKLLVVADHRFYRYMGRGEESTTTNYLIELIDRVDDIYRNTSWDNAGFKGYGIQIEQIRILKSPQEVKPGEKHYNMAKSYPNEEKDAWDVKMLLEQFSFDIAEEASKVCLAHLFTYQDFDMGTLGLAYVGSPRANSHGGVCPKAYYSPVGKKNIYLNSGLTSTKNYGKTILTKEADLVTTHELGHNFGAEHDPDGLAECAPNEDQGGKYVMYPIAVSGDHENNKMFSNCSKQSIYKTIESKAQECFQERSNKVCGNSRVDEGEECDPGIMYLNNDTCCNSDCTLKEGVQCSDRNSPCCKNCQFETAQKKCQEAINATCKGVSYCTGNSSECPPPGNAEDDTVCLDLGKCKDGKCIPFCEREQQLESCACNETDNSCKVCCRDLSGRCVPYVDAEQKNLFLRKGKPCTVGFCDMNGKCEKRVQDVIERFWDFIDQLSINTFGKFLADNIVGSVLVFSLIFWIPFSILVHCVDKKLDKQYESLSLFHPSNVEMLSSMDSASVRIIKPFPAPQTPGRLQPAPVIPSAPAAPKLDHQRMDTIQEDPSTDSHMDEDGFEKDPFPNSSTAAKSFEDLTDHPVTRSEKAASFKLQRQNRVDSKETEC
Nonstructural protein 1, sequence (Q194T2 whole entry): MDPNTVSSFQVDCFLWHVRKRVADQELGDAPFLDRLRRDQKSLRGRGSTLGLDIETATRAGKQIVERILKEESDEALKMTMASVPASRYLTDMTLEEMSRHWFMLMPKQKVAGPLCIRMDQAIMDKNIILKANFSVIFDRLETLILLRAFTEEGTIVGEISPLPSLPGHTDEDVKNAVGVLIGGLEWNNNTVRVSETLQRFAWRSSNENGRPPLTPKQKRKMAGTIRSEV

One may read the AC50 as the concentration giving half of the maximal activity seen. For the compound `CC(C)(C)c1ccc(S(=O)(=O)/C=C\C#N)cc1`, the AC50 in [1] is 2.51 µM (inconclusive); in [2] it was 7.94 µM (inconclusive).
Regarding `OCC1OC(c2ccc3c(c2)OCO3)C=CC1Oc1cc(Cl)cc(Cl)c1` (centres undefined), in [1], the AC50 is 3.98 µM (inconclusive).
One may read the EC50 as the concentration giving half of the maximal effect. As to `c1cc2cn[nH]c2cc1NC1CCCCCC1`, the IC50 in experiment [3] is > 50 µM (not active); in [4], > 50 µM (not active); in experiment [5], 1.94 µM (active). The EC50 in experiment [6] is 8.81 µM (active).
Turning to `COc1cc(O)c(C(=O)c2ccccc2)cc1O` [CEAROIN], the AC50 in [7] was 0.794 µM (inconclusive).
For the compound `CC(C)(C)c1ccc(C(=O)O/N=C(\N)c2ccccc2)cc1`, in [8], the EC50 was 4.8 µM (active). In addition, the IC50 in experiment [9] is 5.77 µM (active); in experiment [10], > 80 µM (inactive); in experiment [11], 5.99 µM (active).
As usually defined, the CC50 is the concentration that lowers cell viability or growth by half. Turning to `Cc1ccc(S(=O)(=O)Nc2cc(Cl)c(O)c3ncccc23)cc1`, the IC50 is > 66 µM (inactive) in experiment [12]; 11.5 µM (active) in experiment [13]; 21.2 µM (inactive) in [16]; 11.1 µM (inactive) in [17]; 4.8 µM (active) in experiment [9]; > 66 µM (inactive) in [21]. In [14], the cytotoxic concentration (CC50) is 5.28 µM (active). The EC50 in [15] is 9.72 µM (active); in experiment [20] it was 8.9 µM (active). In addition, the concentration at half-maximal activity (AC50) is 2.38 µM (active) in experiment [18] and 2.4 µM (active) in experiment [19].
As to `COC(=O)[C@@H]1C[C@@]2(O)[C@H](O)[C@H](O)[C@H](O)C[C@H]2N1Cc1ccc(-c2ccccc2)cc1`, in [7], the AC50 was 15.8 µM (inconclusive).

Values taken from ChEMBL document CHEMBL1201862, “PubChem BioAssay data set” (2004).
